According to EP4151201A1, “SHEET PRODUCT” (Kao Corporation, priority 2020, dated 2021):

Assay: Krafft point of the anionic surfactant
Type: physicochemical
Settings: Krafft point at 10 mass% in aqueous solution; unit not given, Krafft points in °C
Method: The present invention uses a view that the Krafft point is a melting point of a hydrated solid of a surfactant. That is, the Krafft point is the temperature at which a surfactant precipitates when an aqueous solution thereof is cooled. In some kinds of surfactants, the Krafft point changes depending on the concentration. In the present invention, an anionic surfactant having a Krafft point of 45°C or more at a concentration of 10 mass% in an aqueous solution is used. The Krafft point can be measured using a differential scanning calorimetry.

SMILES	Kp (Krafft point)
CCCCCCCCCCCC(=O)[O-].[Na+] [Sodium laurate]	Sodium laurate (Kp ≈ 38)
CCCCCCCCCCCCCCCCCC(=O)N(C)CCS(=O)(=O)[O-].[Na+] [Sodium N-stearoyl-N-methyltaurate]	Sodium N-stearoyl-N-methyltaurate (Kp = 50) (Nikkol SMT, manufactured by Nikko Chemicals Co., Ltd.)
CCCCCCCCCCCCCCCCCC(=O)[O-].[Na+] [Sodium stearate]	Sodium stearate (Kp = 79)
